Measurements as given in patent US8609713B2, “Pyrrole derivatives and their methods of use” (AbbVie Inc., priority 2006, dated 2013).

Target: α7 nAChRs (Homo sapiens, UniProt P36544)
Assay: High-throughput calcium flux (FLIPR) assay using IMR-32 cells expressing endogenous α7 nAChRs
Experimental: (i) High-Throughput Calcium Flux Assays Using Cells Expressing Endogenous α7 nAChRs
Any suitable selective α7 agonist can be used.
IMR-32 neuroblastoma cells (ATCC) were grown to confluency in 162 cm^2 tissue culture flasks in minimum essential media supplemented with 10% FBS and 1 mM sodium puruvate, 0.1 mM non-essential amino acids and 1% antibiotic-antimycotic. The cells were then dissociated using cell dissociation buffer and 40 μl of 3.5×10^5 cells/ml cell suspension was plated (˜15,000 cells/well) into black plates with clear bottom and maintained for 48 hours in a tissue culture incubator at 37° C. under an atmosphere of 5% CO2: 95% air. […] Calcium flux was measured using calcium-3 assay kit (Molecular Devices, Sunnyvale, Calif.) or fluo-4. […] Fluorescence measurements were read simultaneously from all the wells by a Fluorometic Imaging Plate Reader (FLIPR) at an excitation wavelength of 480 nm and an emission wavelength of 520 nm. Baseline fluorescence was measured for the first 10 seconds, at which point 5× concentrations of modulator/test compounds were added to the cell plate and incubated for three minutes. The fluorescence intensity was captured every second for the first 1 minute followed by every 5 seconds for an additional 2 minutes. […]

Chain of α7 nAChRs (P36544 23-502): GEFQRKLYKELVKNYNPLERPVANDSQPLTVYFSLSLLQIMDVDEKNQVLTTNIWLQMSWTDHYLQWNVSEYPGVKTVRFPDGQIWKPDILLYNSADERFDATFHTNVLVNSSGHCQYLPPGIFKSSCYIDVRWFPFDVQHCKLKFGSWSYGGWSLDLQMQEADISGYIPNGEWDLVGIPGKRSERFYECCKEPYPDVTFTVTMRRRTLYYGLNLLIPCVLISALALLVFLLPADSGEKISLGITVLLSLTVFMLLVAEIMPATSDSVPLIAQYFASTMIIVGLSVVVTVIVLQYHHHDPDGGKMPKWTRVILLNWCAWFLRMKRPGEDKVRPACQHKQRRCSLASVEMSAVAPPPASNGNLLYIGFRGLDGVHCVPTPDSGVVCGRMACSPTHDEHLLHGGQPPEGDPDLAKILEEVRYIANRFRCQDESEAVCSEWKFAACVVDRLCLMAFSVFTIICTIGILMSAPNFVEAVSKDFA

For `CN1CC2CN(c3ccc(-c4ccccc4)nn3)CC2C1` (centres unmarked), the “calcium response, agonist alone” value (absence of allosteric modulator, FIG. 3) was “did not trigger calcium responses”.
In the case of `CCN1C[C@]2(COC(=O)c3ccccc3N3C(=O)C[C@H](C)C3=O)CC[C@H](OC)[C@@]34[C@@H]5C[C@H]6[C@H](OC)[C@@H]5[C@](O)(C[C@@H]6OC)[C@@](O)([C@@H](OC)[C@H]23)[C@@H]14` [methyllycaconitine], the “effect of α7 selective antagonist on the agonist plus modulator calcium response” value is reported as “abolished response”.
